We go through 19 compounds from PubChem BioAssay (NCI).

The structures appear in SMILES notation. Several values for one entry are separate records, joined by “and”; a condition that tells them apart may be missing. Equal values may be shown once.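 Exposure lasted 48 hours, with cells grown in 96-well plates and compounds tested at five concentrations. Here, GI50 denotes the concentration required for 50% inhibition of growth. At the TGI there is no net growth.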

One test relates to SF-539 CNS. The test is described as follows: growth of human tumour cells (NCI), 48 h.
`Nc1cccc(Nc2nc3ccccc3nc2NS(=O)(=O)c2ccccc2)c1` gave a TGI of 45.3 µM.

In the case of `COc1cc(CNc2ccc(SC)cc2)cc(OC)c1OC`, the GI50 was 11.4 µM and 3.06 µM; the TGI is 44.4 µM and 12.3 µM.

On to `O=c1[nH]nc(Cc2ccc([N+](=O)[O-])cc2)n1CCO`, for which the TGI is over 100 µM.

As to `N#Cc1c(-c2ccccc2)nc(-c2ccccc2)sc1=S`, the TGI was over 100 µM.

For the compound `O=C(O)CC[N+]1=CCC(c2ccccc2)(c2ccccc2)O1`, the TGI is over 100 µM.

`CC1=NN(c2ccc(S(=O)(=O)O)cc2)C2(C1)SCC(=O)N2c1nc2ccccc2s1` (stereo not drawn) displayed a TGI of over 100 µM.

The compound `CCC(C#N)NC(=O)NC(C#N)CC` (stereo not drawn) gave a TGI of over 100 µM.

In the case of `CCOC(=O)/C=C(/C(=O)OCC)n1ccc(N)nc1=O`, the TGI was over 100 µM.

Regarding `C[C@H](N)C(=O)Nc1ccc(-c2nc3ccccc3s2)cc1`, the TGI was 52.3 µM.

Take `CC(=O)O[C@H]1C#C/C=C\C#CC[C@@H]2C(=O)N[C@@H]12`: the TGI is 5.39 µM.

`Cc1ccc2nc(Cl)c(/C=N/N3C(=O)/C(=C/c4ccccc4S)N=C3c3ccccc3)cc2c1`: the TGI worked out at 43 µM.

Regarding `CN(O)C(=O)c1cccc(Cl)c1`, the TGI is over 100 µM.

Turning to `CCOP(=O)(OCC)c1c(C(=O)OC)cc(=O)[nH]c1-c1ccc(C)cc1`, the TGI was 23 µM.

`NCCN=C(Nc1ccccc1)Nc1ccccc1` came in with a TGI of over 100 µM.

As to `COC(=O)C1=C(C(=O)OC)SC2(S1)C1=C(CCCC1)SC(C(=O)OC)=C2C(=O)OC`, the TGI came to 4.27 µM.

As to `CCC1(C)N=C(c2cnccn2)NN1c1ccc(Cl)cc1` (stereo not drawn), the TGI was over 100 µM.

`C1CNCCNCCN1` had a TGI of over 100 µM.

For `C/C=C/C(O)P1(=O)N(Cc2ccccc2)[C@@H]2CCCC[C@H]2N1Cc1ccccc1` (stereo partly drawn), the TGI was over 25 µM.

The compound `O=c1nc2c(c(-c3ccccc3Cl)[nH]1)COC/C2=C\c1ccccc1Cl` showed a TGI of over 100 µM.

The subject of the next test is EKVX NSCLC. The test is described as follows: growth of human tumour cells (NCI), 48 h.
`Nc1cccc(Nc2nc3ccccc3nc2NS(=O)(=O)c2ccccc2)c1` yielded a TGI of over 100 µM.

With `COc1cc(CNc2ccc(SC)cc2)cc(OC)c1OC`, the TGI was over 100 µM.

As to `O=c1[nH]nc(Cc2ccc([N+](=O)[O-])cc2)n1CCO`, the TGI was over 100 µM.

The compound `N#Cc1c(-c2ccccc2)nc(-c2ccccc2)sc1=S` returned a TGI of over 100 µM.

`O=C(O)CC[N+]1=CCC(c2ccccc2)(c2ccccc2)O1` had a TGI of over 100 µM.

On to `CC1=NN(c2ccc(S(=O)(=O)O)cc2)C2(C1)SCC(=O)N2c1nc2ccccc2s1` (stereo not drawn), for which the TGI is over 100 µM.

On to `CCC(C#N)NC(=O)NC(C#N)CC` (stereo not drawn), for which the TGI is over 100 µM.

`CCOC(=O)/C=C(/C(=O)OCC)n1ccc(N)nc1=O`: the TGI is over 100 µM.

In turn, `C[C@H](N)C(=O)Nc1ccc(-c2nc3ccccc3s2)cc1` came in with a TGI of 26.8 µM.

Compound `CC(=O)O[C@H]1C#C/C=C\C#CC[C@@H]2C(=O)N[C@@H]12` showed a TGI of over 100 µM.

The compound `Cc1ccc2nc(Cl)c(/C=N/N3C(=O)/C(=C/c4ccccc4S)N=C3c3ccccc3)cc2c1` yielded a TGI of over 100 µM.

`CN(O)C(=O)c1cccc(Cl)c1` had a TGI of over 100 µM.

Turning to `CCOP(=O)(OCC)c1c(C(=O)OC)cc(=O)[nH]c1-c1ccc(C)cc1`, the TGI is 17 µM.

For `NCCN=C(Nc1ccccc1)Nc1ccccc1`, the TGI was over 100 µM.

`COC(=O)C1=C(C(=O)OC)SC2(S1)C1=C(CCCC1)SC(C(=O)OC)=C2C(=O)OC` gave a TGI of 26.6 µM.

`CCC1(C)N=C(c2cnccn2)NN1c1ccc(Cl)cc1` (stereo not drawn) had a TGI of over 100 µM.

Consider `C1CNCCNCCN1`, for which the TGI was over 100 µM.

The compound `C/C=C/C(O)P1(=O)N(Cc2ccccc2)[C@@H]2CCCC[C@H]2N1Cc1ccccc1` (stereo partly drawn) came in with a TGI of over 25 µM.

For `O=c1nc2c(c(-c3ccccc3Cl)[nH]1)COC/C2=C\c1ccccc1Cl`, the TGI was determined as 97.4 µM.

For another test, the system named is TK-10 renal. The test is described as follows: growth of human tumour cells (NCI), 48 h.
On to `Nc1cccc(Nc2nc3ccccc3nc2NS(=O)(=O)c2ccccc2)c1`, for which the TGI is over 100 µM.

For `COc1cc(CNc2ccc(SC)cc2)cc(OC)c1OC`, the GI50 is 41 µM and 16.7 µM; the TGI was > 93.3 µM and 77.5 µM.

Turning to `O=c1[nH]nc(Cc2ccc([N+](=O)[O-])cc2)n1CCO`, the TGI is over 100 µM.

In turn, `N#Cc1c(-c2ccccc2)nc(-c2ccccc2)sc1=S` yielded a TGI of over 100 µM.

For `O=C(O)CC[N+]1=CCC(c2ccccc2)(c2ccccc2)O1`, the TGI is over 100 µM.

In the case of `CC1=NN(c2ccc(S(=O)(=O)O)cc2)C2(C1)SCC(=O)N2c1nc2ccccc2s1` (stereo not drawn), the TGI was over 100 µM.

`CCC(C#N)NC(=O)NC(C#N)CC` (stereo not drawn) showed a TGI of over 100 µM.

As to `CCOC(=O)/C=C(/C(=O)OCC)n1ccc(N)nc1=O`, the TGI is over 100 µM.

Turning to `C[C@H](N)C(=O)Nc1ccc(-c2nc3ccccc3s2)cc1`, the TGI stood at 60.8 µM.

For the compound `CC(=O)O[C@H]1C#C/C=C\C#CC[C@@H]2C(=O)N[C@@H]12`, the TGI is over 100 µM.

`Cc1ccc2nc(Cl)c(/C=N/N3C(=O)/C(=C/c4ccccc4S)N=C3c3ccccc3)cc2c1` had a TGI of over 100 µM.

The compound `CN(O)C(=O)c1cccc(Cl)c1` registered a TGI of over 100 µM.

`CCOP(=O)(OCC)c1c(C(=O)OC)cc(=O)[nH]c1-c1ccc(C)cc1`: the TGI was 27.9 µM.

The compound `NCCN=C(Nc1ccccc1)Nc1ccccc1` registered a TGI of over 100 µM.

Compound `COC(=O)C1=C(C(=O)OC)SC2(S1)C1=C(CCCC1)SC(C(=O)OC)=C2C(=O)OC` yielded a TGI of 24.7 µM.

The compound `CCC1(C)N=C(c2cnccn2)NN1c1ccc(Cl)cc1` (stereo not drawn) displayed a TGI of over 100 µM.

Compound `C1CNCCNCCN1` had a TGI of over 100 µM.

Take `C/C=C/C(O)P1(=O)N(Cc2ccccc2)[C@@H]2CCCC[C@H]2N1Cc1ccccc1` (stereo partly drawn): the TGI was over 25 µM.

`O=c1nc2c(c(-c3ccccc3Cl)[nH]1)COC/C2=C\c1ccccc1Cl` showed a TGI of over 100 µM.

The subject of a further test is SF-295 CNS. The test is described as follows: growth of human tumour cells (NCI), 48 h.
Compound `Nc1cccc(Nc2nc3ccccc3nc2NS(=O)(=O)c2ccccc2)c1` yielded a TGI of over 100 µM.

For `COc1cc(CNc2ccc(SC)cc2)cc(OC)c1OC`, the GI50 was 8.24 µM and 3.57 µM; the TGI is 53.8 µM and 22.1 µM.

Regarding `O=c1[nH]nc(Cc2ccc([N+](=O)[O-])cc2)n1CCO`, the TGI was over 100 µM.

For the compound `N#Cc1c(-c2ccccc2)nc(-c2ccccc2)sc1=S`, the TGI was over 100 µM.

With `O=C(O)CC[N+]1=CCC(c2ccccc2)(c2ccccc2)O1`, the TGI was over 100 µM.

`CC1=NN(c2ccc(S(=O)(=O)O)cc2)C2(C1)SCC(=O)N2c1nc2ccccc2s1` (stereo not drawn): the TGI is over 100 µM.

`CCC(C#N)NC(=O)NC(C#N)CC` (stereo not drawn) showed a TGI of over 100 µM.

In turn, `CCOC(=O)/C=C(/C(=O)OCC)n1ccc(N)nc1=O` gave a TGI of over 100 µM.

The compound `C[C@H](N)C(=O)Nc1ccc(-c2nc3ccccc3s2)cc1` had a TGI of 33.9 µM.

The compound `CC(=O)O[C@H]1C#C/C=C\C#CC[C@@H]2C(=O)N[C@@H]12` showed a TGI of over 100 µM.

As for `Cc1ccc2nc(Cl)c(/C=N/N3C(=O)/C(=C/c4ccccc4S)N=C3c3ccccc3)cc2c1`, the TGI worked out at 84 µM.

Consider `CN(O)C(=O)c1cccc(Cl)c1`, for which the TGI is over 100 µM.

For the compound `CCOP(=O)(OCC)c1c(C(=O)OC)cc(=O)[nH]c1-c1ccc(C)cc1`, the TGI turned out to be 40.9 µM.

`NCCN=C(Nc1ccccc1)Nc1ccccc1` came in with a TGI of over 100 µM.

`COC(=O)C1=C(C(=O)OC)SC2(S1)C1=C(CCCC1)SC(C(=O)OC)=C2C(=O)OC` displayed a TGI of 27.8 µM.

The compound `CCC1(C)N=C(c2cnccn2)NN1c1ccc(Cl)cc1` (stereo not drawn) displayed a TGI of over 100 µM.

As to `C1CNCCNCCN1`, the TGI was over 100 µM.

In the case of `C/C=C/C(O)P1(=O)N(Cc2ccccc2)[C@@H]2CCCC[C@H]2N1Cc1ccccc1` (stereo partly drawn), the TGI was over 25 µM.

As for `O=c1nc2c(c(-c3ccccc3Cl)[nH]1)COC/C2=C\c1ccccc1Cl`, the TGI is over 100 µM.

Another test has as its system HT29 colon. The test can be described thus: growth of human tumour cells (NCI), 48 h.
`Nc1cccc(Nc2nc3ccccc3nc2NS(=O)(=O)c2ccccc2)c1`: the TGI is 62.6 µM.

On to `COc1cc(CNc2ccc(SC)cc2)cc(OC)c1OC`, for which the TGI is 29.9 µM and 14.5 µM.

In turn, `O=c1[nH]nc(Cc2ccc([N+](=O)[O-])cc2)n1CCO` had a TGI of over 100 µM.

Consider `N#Cc1c(-c2ccccc2)nc(-c2ccccc2)sc1=S`, for which the TGI is over 100 µM.

In turn, `O=C(O)CC[N+]1=CCC(c2ccccc2)(c2ccccc2)O1` displayed a TGI of over 100 µM.

For the compound `CC1=NN(c2ccc(S(=O)(=O)O)cc2)C2(C1)SCC(=O)N2c1nc2ccccc2s1` (stereo not drawn), the TGI was over 100 µM.

For the compound `CCC(C#N)NC(=O)NC(C#N)CC` (stereo not drawn), the TGI was over 100 µM.

The compound `CCOC(=O)/C=C(/C(=O)OCC)n1ccc(N)nc1=O` returned a TGI of over 100 µM.

`C[C@H](N)C(=O)Nc1ccc(-c2nc3ccccc3s2)cc1` returned a TGI of 38.2 µM.

`CC(=O)O[C@H]1C#C/C=C\C#CC[C@@H]2C(=O)N[C@@H]12` showed a TGI of over 100 µM.

In the case of `Cc1ccc2nc(Cl)c(/C=N/N3C(=O)/C(=C/c4ccccc4S)N=C3c3ccccc3)cc2c1`, the TGI was over 100 µM.

Take `CN(O)C(=O)c1cccc(Cl)c1`: the TGI was over 100 µM.

For the compound `CCOP(=O)(OCC)c1c(C(=O)OC)cc(=O)[nH]c1-c1ccc(C)cc1`, the TGI was determined as 42.1 µM.

In the case of `NCCN=C(Nc1ccccc1)Nc1ccccc1`, the TGI is over 100 µM.

Turning to `COC(=O)C1=C(C(=O)OC)SC2(S1)C1=C(CCCC1)SC(C(=O)OC)=C2C(=O)OC`, the TGI amounted to 11.7 µM.

With `CCC1(C)N=C(c2cnccn2)NN1c1ccc(Cl)cc1` (stereo not drawn), the TGI was over 100 µM.

For `C1CNCCNCCN1`, the TGI is over 100 µM.

Turning to `C/C=C/C(O)P1(=O)N(Cc2ccccc2)[C@@H]2CCCC[C@H]2N1Cc1ccccc1` (stereo partly drawn), the TGI was over 25 µM.

With `O=c1nc2c(c(-c3ccccc3Cl)[nH]1)COC/C2=C\c1ccccc1Cl`, the TGI is over 100 µM.
